Results published in patent publication US12129237B2, “Substituted diaminocarboxamide and diaminocarbonitrile pyrimidines, compositions thereof, and methods of treatment therewith” (SIGNAL PHARMACEUTICALS, LLC, priority 2011, dated 2024).

target: T1, JNK1 (Homo sapiens, UniProt P45983); assay: JNK1 biochemical assays (one or more of: time resolved fluorescence, Z'-LYTE Cascade, radioactive); conditions: tested in one or more of the JNK1 biochemical assays; read-out: Act. Level (JNK1 biochemical assay IC50 activity level)
T1 construct: purchased Carna Biosciences
T1 sequence (P45983 whole entry): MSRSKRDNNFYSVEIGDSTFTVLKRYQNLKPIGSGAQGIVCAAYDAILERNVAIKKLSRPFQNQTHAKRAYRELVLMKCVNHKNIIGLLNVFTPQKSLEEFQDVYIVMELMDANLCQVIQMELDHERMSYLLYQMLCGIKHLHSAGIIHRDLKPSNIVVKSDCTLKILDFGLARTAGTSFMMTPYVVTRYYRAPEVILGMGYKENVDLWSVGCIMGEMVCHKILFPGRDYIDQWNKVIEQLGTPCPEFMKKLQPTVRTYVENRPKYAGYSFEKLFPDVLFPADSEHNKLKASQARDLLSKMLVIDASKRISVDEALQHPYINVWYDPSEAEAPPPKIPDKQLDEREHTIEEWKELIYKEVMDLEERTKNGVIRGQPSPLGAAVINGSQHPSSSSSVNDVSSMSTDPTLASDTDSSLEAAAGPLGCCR

| SMILES | IC50 |
| --- | --- |
| COC[C@H]1CC[C@@H](Nc2nc(NC3CCN(C(C)=O)CC3)ncc2C(N)=O)CC1 [Example A-83, 2-(1-acetylpiperidin-4-ylamino)-4-((1s,4s)-4-(methoxymethyl)cyclohexylamino)pyrimidine-5-carboxamide] | 200 to 800 nM |
| COC[C@H]1CC[C@@H](Nc2nc(N[C@@H]3CCN(C(C)=O)C3)ncc2C(N)=O)CC1 [Example A-84, 2-((R)-1-acetylpyrrolidin-3-ylamino)-4-((1s,4S)-4-(methoxymethyl)cyclohexylamino)pyrimidine-5-carboxamide] | 200 to 800 nM |
| COC[C@H]1CC[C@H](Nc2ncc(C(N)=O)c(N[C@H]3CCN(C(C)=O)C3)n2)CC1 [Example A-85, 4-((S)-1-acetylpyrrolidin-3-ylamino)-2-((1r,4S)-4-(methoxymethyl)cyclohexylamino)pyrimidine-5-carboxamide] | 200 to 800 nM |
| CC(C)CC(=O)N1CCC(Nc2nc(N[C@@H]3CC[C@@H](O)C3)ncc2C(N)=O)CC1 [Example A-86, 2-((1R,3R)-3-hydroxycyclopentylamino)-4-(1-(3-methylbutanoyl)piperidin-4-ylamino)pyrimidine-5-carboxamide] | 200 to 800 nM |
| CC(C)CC(=O)N1CCC(Nc2ncc(C(N)=O)c(N[C@H]3CC[C@@H](O)C3)n2)CC1 [Example A-87, 4-((1S,3R)-3-hydroxycyclopentylamino)-2-(1-(3-methylbutanoyl)piperidin-4-ylamino)pyrimidine-5-carboxamide] | < 200 nM |
| CC(C)CNc1nc(N[C@H]2CC[C@H](O)CC2)ncc1C(N)=O [Example A-88, 2-((1r,4r)-4-hydroxycyclohexylamino)-4-(isobutylamino)pyrimidine-5-carboxamide] | < 200 nM |
| CCC(=O)N1CCC(Nc2ncc(C(N)=O)c(N[C@H]3CC[C@@H](O)CC3)n2)CC1 [Example A-89, 4-((1s,4s)-4-hydroxycyclohexylamino)-2-(1-propionylpiperidin-4-ylamino)pyrimidine-5-carboxamide] | < 200 nM |
| CCC(=O)N1CCC(Nc2nc(N[C@H]3CC[C@H](O)CC3)ncc2C(N)=O)CC1 [Example A-90, 2-((1r,4r)-4-hydroxycyclohexylamino)-4-(1-propionylpiperidin-4-ylamino)pyrimidine-5-carboxamide] | < 200 nM |
| COC[C@H]1CC[C@H](Nc2ncc(C(N)=O)c(N[C@H]3CCC[C@@H]3O)n2)CC1 [Example A-92, 4-((1S,2S)-2-hydroxycyclopentylamino)-2-((1r,4S)-4-(methoxymethyl)cyclohexylamino)pyrimidine-5-carboxamide] | < 200 nM |
| COC[C@H]1CC[C@H](Nc2ncc(C(N)=O)c(N[C@H]3CCC(O)C3)n2)CC1 (stereo partly drawn) [Example A-94, 4-((1S,3R)-3-hydroxycyclopentylamino)-2-((1r,4S)-4-(methoxymethyl)cyclohexylamino)pyrimidine-5-carboxamide] | < 200 nM |
| COC[C@H]1CC[C@@H](Nc2nc(N[C@H]3CCC(O)C3)ncc2C(N)=O)CC1 (stereo partly drawn) [Example A-99, 2-((1S,3S)-3-hydroxycyclopentylamino)-4-((1s,4R)-4-(methoxymethyl)cyclohexylamino)pyrimidine-5-carboxamide] | < 200 nM |
| CCO[C@H]1CC[C@@H](Nc2nc(NC(C)(C)CO)ncc2C(N)=O)CC1 [Example A-106, 4-((1s,4s)-4-ethoxycyclohexylamino)-2-(1-hydroxy-2-methylpropan-2-ylamino)pyrimidine-5-carboxamide] | 200 to 800 nM |
| CC(C)CC(=O)N1CCC(Nc2ncc(C(N)=O)c(NC3CCC3)n2)CC1 [Example A-107, 4-(cyclobutylamino)-2-(1-(3-methylbutanoyl)piperidin-4-ylamino)pyrimidine-5-carboxamide] | < 200 nM |
| CCC(=O)N1CCC(Nc2ncc(C(N)=O)c(NC3CCCC3)n2)CC1 [Example A-114, 4-(cyclopentylamino)-2-(1-propionylpiperidin-4-ylamino)pyrimidine-5-carboxamide] | < 200 nM |
| CO[C@H]1CC[C@H](Nc2ncc(C(N)=O)c(N[C@H]3CC[C@@H](C(=O)N(C)C)CC3)n2)CC1 [Example A-118, 4-((1s,4s)-4-(dimethylcarbamoyl)cyclohexylamino)-2-((1r,4r)-4-methoxycyclohexylamino)pyrimidine-5-carboxamide] | < 200 nM |

The remaining lines, values ahead:

| IC50 | SMILES |
| --- | --- |
| < 200 nM | CO[C@H]1CC[C@H](Nc2ncc(C(N)=O)c(N[C@H]3CCC[C@@H]3O)n2)CC1 [Example A-91, 4-((1S,2S)-2-hydroxycyclopentylamino)-2-((1r,4S)-4-methoxycyclohexylamino)pyrimidine-5-carboxamide] |
| < 200 nM | CCO[C@H]1CC[C@@H](Nc2nc(N[C@@H]3CC[C@@H](O)C3)ncc2C(N)=O)CC1 [Example A-95, 4-((1s,4S)-4-ethoxycyclohexylamino)-2-((1R,3R)-3-hydroxycyclopentylamino)pyrimidine-5-carboxamide] |
| < 200 nM | CCO[C@H]1CC[C@H](Nc2ncc(C(N)=O)c(N[C@@H]3CCC(O)C3)n2)CC1 (stereo partly drawn) [Example A-96, 2-((1r,4R)-4-ethoxycyclohexylamino)-4-((1R,3S)-3-hydroxycyclopentylamino)pyrimidine-5-carboxamide] |
| < 200 nM | CO[C@H]1CC[C@@H](Nc2nc(N[C@@H]3CC[C@@H](CO)C3)ncc2C(N)=O)CC1 [Example A-97, 2-((1R,3R)-3-(hydroxymethyl)cyclopentylamino)-4-((1s,4S)-4-methoxycyclohexylamino)pyrimidine-5-carboxamide] |
| < 200 nM | CO[C@H]1CC[C@H](Nc2ncc(C(N)=O)c(N[C@H]3CC[C@H](CO)C3)n2)CC1 [Example A-98, 4-((1S,3S)-3-(hydroxymethyl)cyclopentylamino)-2-((1r,4S)-4-methoxycyclohexylamino)pyrimidine-5-carboxamide] |
| < 200 nM | CO[C@H]1CC[C@@H](Nc2nc(N[C@H]3CC[C@H](O)CC3)ncc2C(N)=O)CC1 [Example A-100, 2-((1r,4r)-4-hydroxycyclohexylamino)-4-((1s,4s)-4-methoxycyclohexylamino)pyrimidine-5-carboxamide] |
| < 200 nM | CO[C@H]1CC[C@H](Nc2ncc(C(N)=O)c(N[C@H]3CC[C@@H](O)CC3)n2)CC1 [Example A-101, 4-((1s,4s)-4-hydroxycyclohexylamino)-2-((1r,4r)-4-methoxycyclohexylamino)pyrimidine-5-carboxamide] |
| < 200 nM | CCO[C@H]1CC[C@H](Nc2ncc(C(N)=O)c(NC[C@H](C)O)n2)CC1 [Example A-102, 2-((1r,4S)-4-ethoxycyclohexylamino)-4-((S)-2-hydroxypropylamino)pyrimidine-5-carboxamide] |
| < 200 nM | CCO[C@H]1CC[C@H](Nc2ncc(C(N)=O)c(N[C@H]3CCC[C@@H]3OC)n2)CC1 [Example A-103, 2-((1r,4S)-4-ethoxycyclohexylamino)-4-((1S,2S)-2-methoxycyclopentylamino)pyrimidine-5-carboxamide] |
| < 200 nM | CCO[C@H]1CC[C@H](Nc2ncc(C(N)=O)c(N[C@@H]3CCC[C@@H]3O)n2)CC1 [Example A-104, 2-((1r,4R)-4-ethoxycyclohexylamino)-4-((1R,2S)-2-hydroxycyclopentylamino)pyrimidine-5-carboxamide] |
| < 200 nM | CCO[C@H]1CC[C@H](Nc2ncc(C(N)=O)c(N[C@H]3CCOC3)n2)CC1 [Example A-105, 2-((1r,4S)-4-ethoxycyclohexylamino)-4-((S)-tetrahydrofuran-3-ylamino)pyrimidine-5-carboxamide] |
| < 200 nM | NC[C@H]1CC[C@@H](Nc2nc(NC3CCOCC3)ncc2C(N)=O)CC1 [Example A-108, 4-((1s,4s)-4-(aminomethyl)cyclohexylamino)-2-(tetrahydro-2H-pyran-4-ylamino)pyrimidine-5-carboxamide] |
| < 200 nM | COC[C@H]1CC[C@@H](Nc2nc(N[C@H]3CC[C@H](O)CC3)ncc2C(N)=O)CC1 [Example A-109, 2-((1r,4r)-4-hydroxycyclohexylamino)-4-((1s,4s)-4-(methoxymethyl)cyclohexylamino)pyrimidine-5-carboxamide] |
| 200 to 800 nM | CC(C)CC(=O)N1CCC(Nc2ncc(C(N)=O)c(NC3CCOCC3)n2)CC1 [Example A-110, 2-(1-(3-methylbutanoyl)piperidin-4-ylamino)-4-(tetrahydro-2H-pyran-4-ylamino)pyrimidine-5-carboxamide] |
| < 200 nM | CC(C)(O)[C@H]1CC[C@@H](Nc2nc(NC3CCOCC3)ncc2C(N)=O)CC1 [Example A-111, 4-((1s,4s)-4-(2-hydroxypropan-2-yl)cyclohexylamino)-2-(tetrahydro-2H-pyran-4-ylamino)pyrimidine-5-carboxamide] |
| 800 to 1000 nM | NC(=O)c1cnc(NC2CCOCC2)nc1N[C@H]1CC[C@@H](C(=O)N2CCCC2)CC1 [Example A-112, 4-((1s,4s)-4-(pyrrolidine-1-carbonyl)cyclohexylamino)-2-(tetrahydro-2H-pyran-4-ylamino)pyrimidine-5-carboxamide] |
| < 200 nM | CCO[C@H]1CC[C@@H](Nc2nc(NC3CCN(C(=O)CC)CC3)ncc2C(N)=O)CC1 [Example A-113, 4-((1s,4s)-4-ethoxycyclohexylamino)-2-(1-propionylpiperidin-4-ylamino)pyrimidine-5-carboxamide] |
| < 200 nM | CCO[C@H]1CC[C@@H](Nc2nc(NC3CCOCC3)ncc2C(N)=O)CC1 [Example A-115, 4-((1s,4s)-4-ethoxycyclohexylamino)-2-(tetrahydro-2H-pyran-4-ylamino)pyrimidine-5-carboxamide] |
| 200 to 800 nM | CN(C)C(=O)[C@H]1CC[C@@H](Nc2nc(NC3CCOCC3)ncc2C(N)=O)CC1 [Example A-116, 4-((1s,4s)-4-(dimethylcarbamoyl)cyclohexylamino)-2-(tetrahydro-2H-pyran-4-ylamino)pyrimidine-5-carboxamide] |
| < 200 nM | CCO[C@H]1CC[C@H](Nc2ncc(C(N)=O)c(N[C@H]3CCC[C@@H]3O)n2)CC1 [Example A-117, 2-((1r,4S)-4-ethoxycyclohexylamino)-4-((1S,2S)-2-hydroxycyclopentylamino)pyrimidine-5-carboxamide] |
| < 200 nM | CO[C@H]1CC[C@H](Nc2ncc(C(N)=O)c(N[C@H]3CC[C@@H](CO)CC3)n2)CC1 [Example A-119, 4-((1s,4s)-4-(hydroxymethyl)cyclohexylamino)-2-((1r,4r)-4-methoxycyclohexylamino)pyrimidine-5-carboxamide] |
